Results: patent US20250114338A1, “TETRAHYDRO-PYRIDO[3,4-b]INDOLE ESTROGEN RECEPTOR MODULATORS AND USES THEREOF” (Genentech, Inc., priority 2014, published 2025)

Tested on: ER-alpha MCF7
Assay: ER-alpha MCF7 HCS EC50; stated as measured by in vitro cell proliferation assays of Examples 902 and 903
Assay type: cell-based
Conditions: Homo sapiens, MCF7, MCF7 cells; Table 2
Text: The CellTiter-Glo® Luminescent Cell Viability Assay is a homogeneous method to determine the number of viable cells in culture based on quantitation of the ATP present, which signals the presence of metabolically active cells. The CellTiter-Glo® Assay is designed for use with multiwell plate formats, making it ideal for automated high-throughput screening (HTS), cell proliferation and cytotoxicity assays. The homogeneous assay procedure involves adding a single reagent (CellTiter-Glo® Reagent) directly to cells cultured in serum-supplemented medium. Cell washing, removal of medium or multiple pipetting steps are not required. The Cell Titer-Glo® Luminescent Cell Viability Assay, including reagents and protocol are commercially available (Promega Corp., Madison, WI, Technical Bulletin TB288).
The assay assesses the ability of compounds to enter cells and inhibit cell proliferation. The assay principle is based on the determination of the number of viable cells present by quantitating the ATP present in a homogenous assay where addition of the Cell Titer-Glo® reagent results in cell lysis and generation of a luminescent signal through the luciferase reaction. The luminescent signal is proportional to the amount of ATP present.
Cell Culture Medium: RPMI or DMEM high glucose, 10% Fetal Bovine Serum, 2 mM L-Glutamine, P/S. Incubate O/N (overnight) at 37° C., 5% CO2.
Day 2—Add Drug to Cells, Compound Dilution, DMSO Plates (serial 1:2 for 9 points). Add 20 μl of compound at 10 mM in the 2nd column of 96 well plate. […] Add 147 μl of Media into all wells. Transfer 3 μl of DMSO+ compound from each well in the DMSO Plate to each corresponding well on Media Plate using Rapidplate® (Caliper, a Perkin-Elmer Co.). For 2 drug combination studies, transfer one drug 1.5 μl of DMSO+ compound from each well in the DMSO Plate to each corresponding well on Media Plate using Rapidplate. Then, transfer another drug 1.5 μl to the medium plate.
Drug Addition to Cells, Cell Plate (1:10 dilution): Add 6 μl of media+ compound directly to cells (54 μl of media on the cells already). Incubate 3 days at 37° C., 5% CO2 in an incubator that will not be opened often.
Day 5—Develop Plates, Thaw Cell Titer Glo Buffer at room temperature: Remove Cell Plates from 37° C. and equilibrate to room temperature for about 30 minutes. Add Cell Titer-Glo® Buffer to Cell Titer-Glo® Substrate (bottle to bottle). Add 30 μl Cell Titer-Glo® Reagent (Promega cat. #G7572) to each well of cells. Place on plate shaker for about 30 minutes. Read luminescence on Analyst HT Plate Reader (half second per well).
Cell viability assays and combination assays: Cells were seeded at 1000-2000 cells/well in 384-well plates for 16 h. On day two, nine serial 1:2 compound dilutions were made in DMSO in a 96 well plate. The compounds were further diluted into growth media using a Rapidplate® robot (Zymark Corp., Hopkinton, MA). The diluted compounds were then added to quadruplicate wells in 384-well cell plates and incubated at 37° C. and 5% CO2. After 4 days, relative numbers of viable cells were measured by luminescence using Cell Titer-Glo® (Promega) according to the manufacturer's instructions and read on a Wallac Multilabel Reader® (PerkinElmer, Foster City). EC50 values were calculated using Prism® 4.0 software (GraphPad, San Diego).
5 ul of each individual compound concentration and each control compound was transferred to the cell plate. Fulvestrant was added to control wells at a final concentration of 100 nM). DMSO was added to negative control wells (0.2% v/v).

Row | EC50 [nM] | Compound
1 | 0.096 | C[C@@H]1Cc2c([nH]c3ccccc23)[C@@H](c2c(F)cc(NC3CN(CCCF)C3)cc2F)N1CC(C)(C)F [Example 145, N-(3,5-difluoro-4-((1R,3R)-2-(2-fluoro-2-methylpropyl)-3-methyl-2,3,4,9-tetrahydro-1H-pyrido[3,4-b]indol-1-yl)phenyl)-1-(3-fluoropropyl)azetidin-3-amine]
2 | 10 | C[C@@H]1Cc2c([nH]c3ccccc23)[C@@H](c2c(F)cc(OCCN3CC(CF)C3)cc2F)N1CC1CC(F)(F)C1 [Example 146, (1R,3R)-2-[(3,3-difluorocyclobutyl)methyl]-1-[2,6-difluoro-4-[2-[3-(fluoromethyl)azetidin-1-yl]ethoxy]phenyl]-3-methyl-1,3,4,9-tetrahydropyrido[3,4-b]indole]
3 | 0.698 | C[C@@H]1Cc2c([nH]c3ccccc23)[C@@H](c2c(F)cc(OCCN3CC(CF)C3)cc2F)N1CC(C)(C)C [Example 147, (1R,3R)-1-[2,6-difluoro-4-[2-[3-(fluoromethyl)azetidin-1-yl]ethoxy]phenyl]-2-(2,2-dimethylpropyl)-3-methyl-1,3,4,9-tetrahydropyrido[3,4-b]indole]
4 | 1.47 | C[C@@H]1Cc2c([nH]c3ccccc23)[C@@H](c2c(F)cc(OCCN3CC(CF)C3)cc2F)N1C(=O)C1CCC1 [Example 148, cyclobutyl-[(1R,3R)-1-[2,6-difluoro-4-[2-[3-(fluoromethyl)azetidin-1-yl]ethoxy]phenyl]-3-methyl-1,3,4,9-tetrahydropyrido[3,4-b]indol-2-yl]methanone]
5 | 2.16 | C[C@@H]1Cc2c([nH]c3ccccc23)[C@@H](c2c(F)cc(OCCN3CC(CF)C3)cc2F)N1C(=O)C1CCCC1 [Example 149, cyclopentyl-[(1R,3R)-1-[2,6-difluoro-4-[2-[3-(fluoromethyl)azetidin-1-yl]ethoxy]phenyl]-3-methyl-1,3,4,9-tetrahydropyrido[3,4-b]indol-2-yl]methanone]
6 | 0.483 | C[C@H]1CCN(CCOc2cc(F)c([C@@H]3c4[nH]c5ccccc5c4C[C@@H](C)N3CC(C)(C)F)c(F)c2)C1 [Example 150, (1R,3R)-1-[2,6-difluoro-4-[2-[(3S)-3-methylpyrrolidin-1-yl]ethoxy]phenyl]-2-(2-fluoro-2-methyl-propyl)-3-methyl-1,3,4,9-tetrahydropyrido[3,4-b]indole]
7 | 0.156 | C[C@H](COc1cc(F)c([C@@H]2c3[nH]c4ccccc4c3C[C@@H](C)N2CC(C)(C)F)c(F)c1)N1CCCC1 [Example 151, (1R,3R)-1-[2,6-difluoro-4-[(2R)-2-pyrrolidin-1-ylpropoxy]phenyl]-2-(2-fluoro-2-methyl-propyl)-3-methyl-1,3,4,9-tetrahydropyrido[3,4-b]indole]
8 | 0.362 | CCCN1CC(COc2cc(F)c([C@@H]3c4[nH]c5ccccc5c4C[C@@H](C)N3CC(C)(C)F)c(F)c2)C1 [Example 152, (1R,3R)-1-[2,6-difluoro-4-[(1-propylazetidin-3-yl)methoxy]phenyl]-2-(2-fluoro-2-methyl-propyl)-3-methyl-1,3,4,9-tetrahydropyrido[3,4-b]indole]
9 | 0.221 | C[C@@H]1Cc2c([nH]c3ccccc23)[C@@H](c2c(F)cc(OCCN3CC(CF)C3)cc2F)N1CC1(F)CCC1 [Example 153, (1R,3R)-1-[2,6-difluoro-4-[2-[3-(fluoromethyl)azetidin-1-yl]ethoxy]phenyl]-2-[(1-fluorocyclobutyl)methyl]-3-methyl-1,3,4,9-tetrahydropyrido[3,4-b]indole]
10 | 0.0333 | C[C@@H]1Cc2c([nH]c3ccccc23)[C@@H](c2c(F)cc(OCCN3CC(CF)C3)cc2F)N1C[C@](C)(F)CO [Example 154, (S)-3-((1R,3R)-1-(2,6-difluoro-4-(2-(3-(fluoromethyl)azetidin-1-yl)ethoxy)phenyl)-3-methyl-3,4-dihydro-1H-pyrido[3,4-b]indol-2(9H)-yl)-2-fluoro-2-methylpropan-1-ol]
11 | 0.0799 | C[C@@H]1Cc2c([nH]c3ccccc23)[C@@H](c2c(F)cc(OCCN3CC(CF)C3)cc2F)N1C[C@@](C)(F)CO [Example 155, (2R)-3-[(1R,3R)-1-[2,6-difluoro-4-[2-[3-(fluoromethyl)azetidin-1-yl]ethoxy]phenyl]-3-methyl-1,3,4,9-tetrahydropyrido[3,4-b]indol-2-yl]-2-fluoro-2-methyl-propan-1-ol]
12 | 0.335 | C[C@@H]1Cc2c([nH]c3ccccc23)[C@@H](c2ccc(OCCN3CC(CF)C3)cc2)N1CC(C)(C)F [Example 156, (1R,3R)-1-[4-[2-[3-(fluoromethyl)azetidin-1-yl]ethoxy]phenyl]-2-(2-fluoro-2-methyl-propyl)-3-methyl-1,3,4,9-tetrahydropyrido[3,4-b]indole]
13 | 5 | C[C@@H]1Cc2c([nH]c3ccccc23)[C@@H](c2c(F)cc(OCCN3CC(CF)C3)cc2F)N1C(=O)CC1CC1 [Example 157, 2-cyclopropyl-1-[(1R,3R)-1-[2,6-difluoro-4-[2-[3-(fluoromethyl)azetidin-1-yl]ethoxy]phenyl]-3-methyl-1,3,4,9-tetrahydropyrido[3,4-b]indol-2-yl]ethanone]
14 | 10 | C[C@@H]1Cc2c([nH]c3ccccc23)[C@@H](c2c(F)cc(OCCN3CC(CF)C3)cc2F)N1C(=O)CC1CCC1 [Example 158, 2-cyclobutyl-1-[(1R,3R)-1-[2,6-difluoro-4-[2-[3-(fluoromethyl)azetidin-1-yl]ethoxy]phenyl]-3-methyl-1,3,4,9-tetrahydropyrido[3,4-b]indol-2-yl]ethanone]
15 | 0.285 | C[C@@H]1Cc2c([nH]c3ccccc23)[C@@H](c2c(F)cc(OCCN3CC(C)(CF)C3)cc2F)N1CC(C)(C)F [Example 160, (1R,3R)-1-[2,6-difluoro-4-[2-[3-(fluoromethyl)-3-methyl-azetidin-1-yl]ethoxy]phenyl]-2-(2-fluoro-2-methyl-propyl)-3-methyl-1,3,4,9-tetrahydropyrido[3,4-b]indole]
16 | 0.0413 | C[C@@H]1Cc2c([nH]c3ccccc23)[C@@H](c2c(F)cc(OC3CN(C)C3)cc2F)N1CC(C)(C)F [Example 161, (1R,3R)-1-[2,6-difluoro-4-(1-methylazetidin-3-yl)oxy-phenyl]-2-(2-fluoro-2-methyl-propyl)-3-methyl-1,3,4,9-tetrahydropyrido[3,4-b]indole]
17 | 0.0528 | CCN1CC(Oc2cc(F)c([C@@H]3c4[nH]c5ccccc5c4C[C@@H](C)N3CC(C)(C)F)c(F)c2)C1 [Example 162, (1R,3R)-1-[4-(1-ethylazetidin-3-yl)oxy-2,6-difluoro-phenyl]-2-(2-fluoro-2-methyl-propyl)-3-methyl-1,3,4,9-tetrahydropyrido[3,4-b]indole]
18 | 0.457 | CCCCCN1CC(Oc2cc(F)c([C@@H]3c4[nH]c5ccccc5c4C[C@@H](C)N3CC(C)(C)F)c(F)c2)C1 [Example 163, (1R,3R)-1-[2,6-difluoro-4-(1-pentylazetidin-3-yl)oxy-phenyl]-2-(2-fluoro-2-methyl-propyl)-3-methyl-1,3,4,9-tetrahydropyrido[3,4-b]indole]
19 | 0.216 | C[C@@H]1Cc2c([nH]c3ccccc23)[C@@H](c2c(F)cc(OC3CN(CC4CC4)C3)cc2F)N1CC(C)(C)F [Example 164, (1R,3R)-1-[4-[1-(cyclopropylmethyl)azetidin-3-yl]oxy-2,6-difluoro-phenyl]-2-(2-fluoro-2-methyl-propyl)-3-methyl-1,3,4,9-tetrahydropyrido[3,4-b]indole]

Same assay, conditions: Homo sapiens; MCF7 cells; Table 2

Row | EC50 [nM] | Compound
20 | 0.147 | C[C@@H]1Cc2c([nH]c3ccccc23)[C@@H](c2c(F)cc(OCCN3CC(CF)C3)cc2F)N1C(=O)C(C)(F)F [Example 159, 1-[(1R,3R)-1-[2,6-difluoro-4-[2-[3-(fluoromethyl)azetidin-1-yl]ethoxy]phenyl]-3-methyl-1,3,4,9-tetrahydropyrido[3,4-b]indol-2-yl]-2,2-difluoro-propan-1-one]
